Laboratory results taken from PubChem BioAssay AID1918948 (Molecular Pharmacology Branch, DTP, NCI, 2023).

Tested on: K-562 leukemia growth, % test/control
Assay: Anticancer human tumor K-562 cell line growth inhibition;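 note: spheroids exposed to compounds for 7 days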;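 for viability, T/C: 100% = DMSO vehicle wells and lower values mean fewer viable cells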
Conditions: spheroids with HUVEC and MSC; for IC50: curve of first compound; for viability, T/C: stronger effect = lower value
Summary of the method: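 Drug combinations with the LSD1 inhibitor iadademstat tested on tumor cells co-cultured as spheroids with endothelial cells and mesenchymal stem cells. Concentrations descended in half-log increments from clinical Cmax or 10 microM.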

[1] = second compound 0.1 µM, first compound 0.0316 µM
[2] = second compound 0.1 µM, first compound 0.1 µM
[3] = second compound 0.1 µM, first compound 0.316 µM
[4] = second compound 0.1 µM, first compound 1 µM
[5] = second compound 0.316 µM, first compound 0.0316 µM
[6] = second compound 0.316 µM, first compound 0.1 µM
[7] = second compound 0.316 µM, first compound 0.316 µM
[8] = second compound 0.316 µM, first compound 1 µM
[9] = second compound 1 µM, first compound 0.0316 µM
[10] = second compound 1 µM, first compound 0.1 µM
[11] = second compound 1 µM, first compound 0.316 µM
[12] = second compound 1 µM, first compound 1 µM
[13] = second compound 3.16 µM, first compound 0.0316 µM
[14] = second compound 3.16 µM, first compound 0.1 µM
[15] = second compound 3.16 µM, first compound 0.316 µM
[16] = second compound 3.16 µM, first compound 1 µM
[17] = second compound 10 µM, first compound 0.0316 µM
[18] = second compound 10 µM, first compound 0.1 µM
[19] = second compound 10 µM, first compound 0.316 µM
[20] = second compound 10 µM, first compound 1 µM

Compound | IC50 (second compound 0.1 µM) | IC50 (second compound 0.316 µM) | IC50 (second compound 1 µM) | IC50 (second compound 3.16 µM) | IC50 (second compound 10 µM) | viability, T/C [1] | viability, T/C [2] | viability, T/C [3] | viability, T/C [4] | viability, T/C [5] | viability, T/C [6] | viability, T/C [7] | viability, T/C [8] | viability, T/C [9] | viability, T/C [10] | viability, T/C [11] | viability, T/C [12] | viability, T/C [13] | viability, T/C [14] | viability, T/C [15] | also measured
CC1COCCN1c1cc(-c2ccnn2C)c2ccnc(-c3ccn[nH]3)c2n1 (stereo not given) + NC1CCC(NC2CC2c2ccccc2)CC1 | 11.2 nM | 12.2 nM | 11.4 nM | 10.1 nM | 7.2 nM | 10.2% | 3.75% | 2.62% | 2.45% | 12.9% | 3.52% | 2.63% | 2.48% | 9.5% | 3.51% | 2.76% | 2.82% | 11.5% | 3.8% | 3.16% | viability, T/C (second compound 0.1 µM, first compound 0.00316 µM): 90.4%; viability, T/C (second compound 0.1 µM, first compound 0.01 µM): 54.5%; viability, T/C (second compound 0.316 µM, first compound 0.00316 µM): 91%; viability, T/C (second compound 0.316 µM, first compound 0.01 µM): 57.9%; viability, T/C (second compound 1 µM, first compound 0.00316 µM): 92.7%; viability, T/C (second compound 1 µM, first compound 0.01 µM): 55.1%; viability, T/C (second compound 3.16 µM, first compound 0.00316 µM): 92.2%; viability, T/C (second compound 3.16 µM, first compound 0.01 µM): 50.2%; viability, T/C [16]: 2.7%; viability, T/C (second compound 10 µM, first compound 0.00316 µM): 83.3%; viability, T/C (second compound 10 µM, first compound 0.01 µM): 36.7%; viability, T/C [17]: 8.26%; viability, T/C [18]: 4.09%; viability, T/C [19]: 2.75%; viability, T/C [20]: 3.72%
CC1COCCN1c1cc(C2(S(C)(=N)=O)CC2)nc(-c2ccnc3[nH]ccc23)n1 (stereo not given) + NC1CCC(NC2CC2c2ccccc2)CC1 | 578 nM | 603 nM | 614 nM | 602 nM | 511 nM | 101% | 97.5% | 81.8% | 21.2% | 104% | 96.9% | 84.5% | 23.1% | 106% | 101% | 86.2% | 23.4% | 103% | 99.7% | 84.5% | viability, T/C (second compound 0.1 µM, first compound 3.16 µM): 3.64%; viability, T/C (second compound 0.1 µM, first compound 10 µM): 2.72%; viability, T/C (second compound 0.316 µM, first compound 3.16 µM): 4.12%; viability, T/C (second compound 0.316 µM, first compound 10 µM): 2.74%; viability, T/C (second compound 1 µM, first compound 3.16 µM): 3.81%; viability, T/C (second compound 1 µM, first compound 10 µM): 2.62%; viability, T/C [16]: 22.9%; viability, T/C (second compound 3.16 µM, first compound 3.16 µM): 3.69%; viability, T/C (second compound 3.16 µM, first compound 10 µM): 2.79%; viability, T/C [17]: 96.6%; viability, T/C [18]: 98.2%; viability, T/C [19]: 73.2%; viability, T/C [20]: 17.3%; viability, T/C (second compound 10 µM, first compound 3.16 µM): 3.62%; viability, T/C (second compound 10 µM, first compound 10 µM): 2.14%
